Data published in US11357734B2, “Pharmaceutical granulations of water-soluble active pharmaceutical ingredients” (XWPHARMA LTD., priority 2020, dated 2022).

Legend:
Format in all cases: physicochemical
[1] = Bulk density (USP 616, Method 1; bulk density cylinder)
Description: Bulk density can be determined according to USP 616, Method 1.
Bulk density can be determined using a bulk density cylinder.

[2] = Tapped bulk density (USP 616); settings: active pharmaceutical ingredient used in Example 13
Description: Tapped bulk density can be determined according to USP 616.

[3] = Hausner Ratio (USP 1174); settings: active pharmaceutical ingredient used in Example 13
Description: The Hausner Ratio can be determined according to USP 1174.

[4] = Particle size distribution by laser diffraction
Description: The parameter D90 refers to the point in the size distribution of a sample, up to and including which, 90% of the total volume of material in the sample is contained. For example for a D90 of 400 μm, 90% of the sample volume has a size of 400 μm or less. D50 is the size below which 50% of the total volume of material in the sample is contained. Similarly, D10 refers to the size below which 10% of the total volume of material in the sample is contained. The volume distribution of the sample can be determined by laser diffraction or by sieve analysis.
A particle size distribution can be determined by laser diffraction or by sieve analysis.
FIGS. 15 and 16 show a particle size distribution of as-crystallized active pharmaceutical ingredient and jet-milled active pharmaceutical ingredient, respectively, as determined by laser diffraction. The PSD of the as-crystallized active pharmaceutical ingredient was characterized by a D10 of 11.8 μm, a D50 of 34.0 μm, and a D90 of 72.3 μm. The PSD of the jet-milled active pharmaceutical ingredient was characterized by a D10 of 7.8 μm, a D50 of 16.1 μm, and a D90 of 21.5 μm.

[5] = Specific surface area by laser diffraction
Method: Specific surface area can be determined by laser diffraction.
The specific surface area distributions of as-crystallized active pharmaceutical ingredient and jet-milled active pharmaceutical ingredient was determined by laser diffraction. […] In other samples, the jet milled active pharmaceutical ingredient was characterized by a specific surface area of 1174 m^2/kg.

[6] = active pharmaceutical ingredient used in Example 13
[7] = FIGS. 15 and 16, laser diffraction, listed as as-crystallized active pharmaceutical ingredient
[8] = FIGS. 15 and 16, laser diffraction, listed as jet-milled active pharmaceutical ingredient

CC(C)[C@H](N)C(=O)OCCCC(=O)O [As-Crystallized, 4-((L-valyl)oxy)butanoic acid]
API Bulk Density [1, 6]: 0.20 g/mL
API Tapped Bulk Density [2]: 0.38 g/mL
Hausner Ratio [3]: 1.85
PSD D10 [4, 7]: 11.8 μm
PSD D50 [4, 7]: 34.0 μm
PSD D90 [4, 7]: 72.3 μm
PSD D10 [4, 6]: 12 μm
PSD D50 [4, 6]: 34 μm
PSD D90 [4, 6]: 71 μm
specific surface area [5, 6]: 291 m^2/kg
specific surface area ([5]; laser diffraction, listed as as-crystallized active pharmaceutical ingredient): 291 m^2/kg

CC(C)[C@H](N)C(=O)OCCCC(=O)O [Jet-Milled, 4-((L-valyl)oxy)butanoic acid]
API Bulk Density ([1]; Jet Milled API used for granulation (13)): 0.12 g/mL
API Bulk Density [1, 6]: 0.12 g/mL
API Tapped Bulk Density [2]: 0.20 g/mL
Hausner Ratio [3]: 1.700
PSD D10 [4, 8]: 7.8 μm
PSD D50 [4, 8]: 16.1 μm
PSD D90 [4, 8]: 21.5 μm
PSD D10 [4, 6]: 8 μm
PSD D50 [4, 6]: 16 μm
PSD D90 [4, 6]: 28 μm
specific surface area [5, 6]: 478 m^2/kg
specific surface area ([5]; in other samples): 1174 m^2/kg
specific surface area ([5]; laser diffraction, listed as jet-milled active pharmaceutical ingredient): 478 m^2/kg

CC(C)[C@H](N)C(=O)OCCCC(=O)O [active pharmaceutical ingredient, 4-((L-valyl)oxy)butanoic acid]
bulk density ([1]; active pharmaceutical ingredient of Example 9, before Comil): 0.263 g/mL
bulk density ([1]; active pharmaceutical ingredient used in Examples 1-6): 0.15 g/mL
